Like-named read-outs stand apart in the source and are kept apart here.

For experiment [1], the target named is T1, FTase (Homo sapiens, UniProt P49354+P49356). Briefly: in vitro inhibition of FTase by farnesylated monophosphates. The experiment is classed as biochemical.
Experiment [2] deals with T1, FTase. The conditions noted are these: background, have been shown; cited from earlier work.
Setting [3] is: read-out: IC50 for inhibition of FTase.

Turning to `CC(C)=CCCC(C)=CCCC(=CCOP(=O)(O)O)CC=C(C)C` [3-(3,3-dimethylallyl)farnesyl monophosphate], the IC50 at FTase [1] (highest dose tested 10 uM, read-out: IC50 for inhibition of FTase (not showing 50% inhibition at the highest dose tested)) is over 10000 nM.

`C=CCC(=CCOP(=O)(O)O)CCC=C(C)CCC=C(C)C` [3-Allylfarnesyl monophosphate, 3-allylfarnesyl monophosphate]: the half-inhibitory concentration (IC50) at FTase [1] (setting [3]) is about 11 nM. Still for that read-out and setting: the result for `CC(C)=CCCC(C)=CCCC(=CCOP(=O)(O)O)C(C)(C)C` [3-t-butylfarnesyl monophosphate] reads about 16 nM. As for `CC(C)=CCCC(C)=CCCC(=CCOP(=O)(O)OP(=O)(O)O)CC=C(C)C` [pyrophosphate of 3-(3,3-dimethylallyl)farnesol], the “inhibition of FTase, described in words” value at FTase [2] is given as “protein-selective inhibitor”. On to `C=CCC(=CCOP(=O)(O)OP(=O)(O)O)CCC=C(C)CCC=C(C)C` [pyrophosphate of 3-allylfarnesol], for which the “inhibition of FTase, described in words” value on FTase [2] is listed as “nanomolar inhibitors”. As for `CC(C)=CCCC(C)=CCCC(=CCOP(=O)(O)OP(=O)(O)O)C(C)(C)C` [pyrophosphate of 3-t-butylfarnesol], at FTase [2], the “inhibition of FTase, described in words” value is “nanomolar inhibitors”.

Broadly, the IC50 is the point on the concentration scale where inhibition reaches its midpoint.

The values are drawn from patent US8324378B2, “Prodrugs and conjugates of prenylation inhibitors” (Purdue Research Foundation, priority 2007, dated 2012).
